Reference: patent US4036961A (priority 1972, dated 1977)
Where a name gives a salt, the structure may show the parent alone.

Experiments:
[1] = target: hydroxymethyldihydropteridine pyrophosphokinase (HMPPS) (Escherichia coli, UniProt P26281); assay: Inhibition of the enzymes of dihydropteroate biosynthesis (ATP-γ-P32 transfer assay for HMPPS; dihydropteroate-C14 formation for synthetase); type: biochemical; settings: enzymes from E. coli extract; tests (a) HMPPS and (b) synthetase of Example 5; read-out: concentration giving 50% inhibition
Chain of hydroxymethyldihydropteridine pyrophosphokinase (HMPPS) (P26281 whole entry): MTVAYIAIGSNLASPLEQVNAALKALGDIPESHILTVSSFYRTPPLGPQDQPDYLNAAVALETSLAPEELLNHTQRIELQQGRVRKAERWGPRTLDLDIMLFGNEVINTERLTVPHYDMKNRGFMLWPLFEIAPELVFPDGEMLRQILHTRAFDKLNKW
Procedure: The inhibiting activity against HMPPS of a selected compound of formula (I) can, for instance, be tested by monitoring the transfer of the terminal phosphate of adenosine triphosphate ATP-γ-P^32 to `dihydropteridine`. […] Such inhibition may, for instance, be easily and simply carried out by incubating an extract of E. coli with pAB-7-C^14, ATP, Mg and `dihydropteridine`. The formation of the dihydropteroate-C^14 can be quantitatively assayed after separating the unreated pAB substrate, for instance by chromatography. […] Preferably the value is 25 μM or less, such as in the range between […]. Generally a value below 7μM is desirable. […]
phosphate of ATP-γ-P^32 to Pt could be monitored and correlated […]
Tubes 1 to 9 containing the amounts of components shown in the Table, were filled up to 200μl with distilled water, incubated for 60 minutes at 37° C and then chilled on ice. […] The charcoal and the filter were then radioactively counted.
The radioactive count from the contents of tubes 2 and 3 was taken as the maximum count, since these tubes contained no test compound and thus gave 0% enzyme inhibition. The percentage inhibition produced by the contents of the remaining tubes could then be calculated by relating their radioactive count to the maximum, as determined above. […]

Derm. dermatonomous = settings: disclosed in British Pat. No. 1303171 and Application No. 36289/70; cited from earlier work
Cl. perfringens = settings: disclosed in British Pat. No. 1303171 and Application No. 36289/70; cited from earlier work

CC1(C)Nc2nc(N)nc(O)c2N=C1CBr [2-Amino-4-hydroxy-6-bromomethyl-7,7-dimethyl-7,8-dihydropteridine hydrobromide]
IC50 [1]: 5 µM

CC1=Nc2c(O)nc(N)nc2NC1(C)C [2-amino-4-hydroxy-6-methyl-7,7-dimethyl-7,8-dihydropteridine]
bacteriostatic activity (Derm. dermatonomous): particularly effective
bacteriostatic activity (Cl. perfringens): particularly effective

CC1(C)Nc2nc(N)nc(O)c2N=C1C(Br)Br [the 6-dibromomethyl analogue, 2-Amino-4-hydroxy-6-dibromomethyl-7,7-dimethyl-7,8-dihydropteridine hydrobromide]
IC50 [1]: 25 µM

CC1(C)Nc2nc(N)nc(O)c2N=C1CO [2-amino-4-hydroxy-6-hydroxymethyl-7,7-dimethyl-7,8-dihydropteridine]
bacteriostatic activity (Derm. dermatonomous): particularly effective
bacteriostatic activity (Cl. perfringens): particularly effective
